Results reported in article PMC5423977, “Safety, pharmacokinetics, and pharmacodynamics of BMS-986142, a novel reversible BTK inhibitor, in healthy participants” (European Journal of Clinical Pharmacology, 2017).
Read-outs that look alike come from different tables or passages of the source. Values belong to the compound of their own block, whether it stands above or below them.

Key:
[1] = Effect of BMS-986142 on single-dose plasma PK of MTX (DDI); format: in vivo, human; conditions: for AUC(0-inf): read-out: AUC(inf), geometric mean (adjusted); for Cmax: read-out: Cmax, geometric mean (adjusted)
Protocol: Blood samples for the measurement of BMS-986142 were collected up to 168 h after dosing of BMS-986142 on day 1 for participants in SAD. In MAD, blood samples were collected up to 24 h on day 1 and up to 120 h on day 14 (the last day of treatment). Blood samples for the measurement of MTX were collected up to 48 h after dosing of MTX on days 1 and 8.
Plasma samples were analyzed for BMS-986142 levels with a validated method using liquid chromatography tandem mass spectrometry (LC-MS/MS) detection. The analyte was extracted from 50 μL of plasma using a liquid–liquid extraction method. Methyl tert-butyl ether was used as the extraction solvent. The lower limit of quantification (LLOQ) was 1.00 ng/mL in plasma. Plasma samples were analyzed for methotrexate levels using LC-MS/MS detection. Analytes were isolated from 50 μL plasma through solid phase extraction using Waters Oasis MAX, 10-mg, 96-well SPE plates. The final extract was analyzed using LC-MS/MS detection. LLOQ was 1.00 ng/mL in plasma. Detailed methodology quantitating the concentration level of BMS-986142 and MTX is provided in Online Resource 10.
Individual subject pharmacokinetic parameters for BMS-986142 and MTX were derived by a non-compartmental method using validated PK software (WinNonLin version 6.3; Pharsight Corporation, Mountain View, CA, USA). The following PK parameters for BMS-986142 and MTX were derived from plasma concentration versus time data: maximum observed plasma concentration (Cmax); minimum observed plasma concentration (Cmin); time to maximum observed plasma concentration (Tmax); area under the plasma concentration-time curve from time zero to the time of the last quantifiable concentration (AUC(0-T)), from time zero extrapolated to infinite time (AUC(inf)), and in one dosing interval (AUC(TAU)); terminal plasma half-life (T1/2); and AUC accumulation index (AI_AUC). AI_AUC was calculated to divide AUC(TAU) on day 14 by AUC(TAU) on day 1.
Statistical analyses were conducted to assess the effect of coadministration of BMS-986142 on the PK of MTX. For all treatment comparisons, a linear mixed-effect model was fitted to the log-transformed PK parameters Cmax, AUC(0-T), and AUC(inf). Point estimates and 90% CIs for differences on the log-scale were exponentiated to obtain estimates for geometric mean ratios (GMRs) and respective 90% CIs on the original scale. Sample size determination is based on consideration of the precision of the estimate of the GMRs of AUCs of MTX with and without BMS-986142. With 9 evaluable subjects, there will be an 80% probability that the 90% CI of AUC(INF) GMR will be within 89.9 to 111.2% of the point estimate. These precision estimates are based on an assumption that Cmax and AUC(INF) of MTX are log-normally distributed with intrasubject CV of 14.67 and 10.38%, respectively, as calculated from Namour et al..

[2] = Stability of methotrexate and 7-hydroxymethotrexate in human sodium heparin plasma and processed samples (bioanalytical validation); format: physicochemical
Protocol: Method validation was carried out according to the Bristol-Myers Squibb Standard Operating Procedures (SOPs) for chromatographic method validation which conforms to the U.S. FDA’s Good Laboratory Practice (GLP) regulations (21 CFR part 58). The validation experiments included but were not limited to the determination of the lower limit of quantification (LLOQ), specificity, accuracy and precision, recovery, and analyte stability under the expected conditions of sample transfer, sample storage, and sample preparation. The LLOQ of the assay was determined to be 1 ng/mL using six different lots of plasma. No interference from the endogenous components and the internal standard was observed.
The accuracy and precision data for BMS-986142, based on the maximum value from all six QC levels, obtained using one-way ANOVA in Watson are listed in Table 1. The recovery of the analyte from human plasma during extraction was determined at 3 ng/mL and 800 ng/mL for BMS-986142, at 3 ng/mL, 30 ng/mL and 750 ng/mL for methotrexate and 7-hydroxymethotrexate, by comparing the response ratios in human plasma samples spiked with the analyte prior to extraction with those spiked post-extraction. The recovery for BMS-986142 is 89-90%. The recoveries for methotrexate and 7-hydroxymethotrexate are 88-94% and 83-88%, respectively. The room temperature, freeze-thaw, and frozen storage stability of BMS-986142 were evaluated in triplicate or quadruplicate using Low QC, High QC, and Dilution QC. The reinjection integrity was assessed by re-injecting an entire run. The deviations of the mean predicted concentrations of the test samples from the nominal concentrations were used as an indicator of the stability of the analyte.

[3] = Safety (adverse events), Study 2 MTX-DDI in healthy male participants
Protocol: This portion of the study was designed to assess the effect of BMS-986142 on the PK of MTX since MTX is used as a background therapy in RA patients and all patients will receive MTX when the phase 2 study of BMS-986142 is conducted. Eligible participants were confined to the clinical facility for the duration of treatment (15 days). Healthy participants were administered a single oral dose of 7.5 mg MTX on day 1. On day 2, participants received leucovorin (a single oral dose of 15 mg) as a preventive measure for MTX toxicity. After a washout period (days 2–5), BMS-986142 was administered on days 6–10 in 350-mg QD doses. A concomitant dose of MTX (7.5 mg) was administered on day 8, followed by leucovorin (15 mg) on day 9 (Online Resource 2). BMS-986142 was administered with 240 mL of water, and a minimum amount of additional water was permitted to allow dosing of all medications. Only healthy male participants (ages ≥18 to ≤50 years) were eligible for the MTX-DDI assessment in study 2. Other key inclusion and exclusion criteria were identical to those in study 1.
Participants were monitored for adverse events (AEs) throughout the study. Clinical laboratory tests, vital sign measurements, 12-lead ECGs, and physical examinations were performed at selected times throughout the dosing interval. Safety data was recorded in the participants’ medical records, and assessments were performed for emergent AEs or serious AEs (SAEs). For all AEs, causal relationship to the study drug was determined by an investigator.

[4] = tested on: animal models of arthritis; parameters: method as in PMID 21752263, PMID 21521773; conditions: cited from earlier work
[5] = tested on: rat adjuvant-induced arthritis model; parameters: method as in PMID 22228807; conditions: alone or in combination with MTX; cited from earlier work
[6] = male, human, plasma, oral, Treatment D: single-dose methotrexate 7.5 mg (day 1) + leucovorin 15 mg (day 2)
[7] = male, human, plasma, oral, Treatment F: BMS-986142 350 mg QD + single-dose methotrexate 7.5 mg (day 8) + leucovorin 15 mg (day 9)
[8] = methotrexate with BMS-986142 350 mg QD vs methotrexate alone
[9] = methotrexate, 24 hours at RT in Plasma, High QC 750
[10] = methotrexate, 24 hours at RT in Plasma, Low QC 3.00
[11] = methotrexate, 142 h Processed sample stability, High QC 750
[12] = methotrexate, 142 h Processed sample stability, Low QC 3.00
[13] = methotrexate, 6 days at 5 °C Re-injection integrity, High QC 750
[14] = methotrexate, 6 days at 5 °C Re-injection integrity, Low QC 3.00
[15] = methotrexate, 449 day at -20 °C in Plasma, High QC 750
[16] = methotrexate, 449 day at -20 °C in Plasma, Low QC 3.00
[17] = methotrexate, After 4 Freeze-Thaw Cycle in Plasma, High QC 750
[18] = methotrexate, After 4 Freeze-Thaw Cycle in Plasma, Low QC 3.00
[19] = MTX 7.5 mg (Day 1) + leucovorin 15 mg (Day 2), n = 12
[20] = 7-hydroxymethotrexate, 24 hours at RT in Plasma, High QC 750
[21] = 7-hydroxymethotrexate, 24 hours at RT in Plasma, Low QC 3.00
[22] = 7-hydroxymethotrexate, 142 h Processed sample stability, High QC 750
[23] = 7-hydroxymethotrexate, 142 h Processed sample stability, Low QC 3.00
[24] = 7-hydroxymethotrexate, 6 days at 5 °C Re-injection integrity, High QC 750
[25] = 7-hydroxymethotrexate, 6 days at 5 °C Re-injection integrity, Low QC 3.00
[26] = 7-hydroxymethotrexate, 449 day at -20 °C in Plasma, High QC 750
[27] = 7-hydroxymethotrexate, 449 day at -20 °C in Plasma, Low QC 3.00
[28] = 7-hydroxymethotrexate, After 4 Freeze-Thaw Cycle in Plasma, High QC 750
[29] = 7-hydroxymethotrexate, After 4 Freeze-Thaw Cycle in Plasma, Low QC 3.00

AUC(0-T), geometric mean (adjusted) ([1]; Treatment D: single-dose methotrexate 7.5 mg (day 1) + leucovorin 15 mg (day 2)): 613 ng·h/mL
AUC(0-inf) [1, 6]: 625 ng·h/mL
Cmax [1, 6]: 178 ng/mL
AUC(0-t) ([1]; male, human, plasma, oral, Treatment F: BMS-986142 350 mg QD + single-dose methotrexate 7.5 mg (day 8) + leucovorin 15 mg (day 9), read-out: AUC(0-T), geometric mean (adjusted)): 638 ng·h/mL
AUC(0-inf) [1, 7]: 654 ng·h/mL
Cmax [1, 7]: 186 ng/mL
AUC(0-T), adjusted geometric mean ratio F vs D [1, 8]: 1.041
AUC(inf), adjusted geometric mean ratio F vs D [1, 8]: 1.045
Cmax, adjusted geometric mean ratio F vs D [1, 8]: 1.046
Stability, %Dev [2, 9]: 0.2%
Stability, Mean Conc. [2, 9]: 751 ng/mL
Stability, %Dev [2, 10]: -0.1%
Stability, Mean Conc. [2, 10]: 3.00 ng/mL
Stability, %Dev [2, 11]: -13.1%
Stability, Mean Conc. [2, 11]: 652 ng/mL
Stability, %Dev [2, 12]: -9.2%
Stability, Mean Conc. [2, 12]: 2.72 ng/mL
Stability, %Dev [2, 13]: -2.2%
Stability, Mean Conc. [2, 13]: 734 ng/mL
Stability, %Dev [2, 14]: 3.4%
Stability, Mean Conc. [2, 14]: 3.10 ng/mL
Stability, %Dev [2, 15]: 0.6%
Stability, Mean Conc. [2, 15]: 755 ng/mL
Stability, %Dev [2, 16]: -9.9%
Stability, Mean Conc. [2, 16]: 2.70 ng/mL
Stability, %Dev [2, 17]: -2.1%
Stability, Mean Conc. [2, 17]: 734 ng/mL
Stability, %Dev [2, 18]: 3.7%
Stability, Mean Conc. [2, 18]: 3.11 ng/mL
SMILES: CN(Cc1cnc2nc(N)nc(N)c2n1)c1ccc(C(=O)N[C@@H](CCC(=O)O)C(=O)O)cc1 [methotrexate, reference compound]
AE SOC: Gastrointestinal Disorders [3, 19]: 0 n (%)
AE SOC: General disorders and administration site conditions [3, 19]: 1 (8.3) n (%)
AE SOC: Infections and infestations [3, 19]: 0 n (%)
AE SOC: Injury, poisoning and procedural complications [3, 19]: 0 n (%)
AE SOC: Nervous system disorders [3, 19]: 1 (8.3) n (%)
AE SOC: Psychiatric disorders [3, 19]: 0 n (%)
AE: Anxiety [3, 19]: 0 n (%)
AE: Arthropod Bite [3, 19]: 0 n (%)
AE: Asthenia [3, 19]: 1 (8.3) n (%)
AE: Dizziness [3, 19]: 1 (8.3) n (%)
AE: Fatigue [3, 19]: 0 n (%)
AE: Headache [3, 19]: 0 n (%)
AE: Nausea [3, 19]: 0 n (%)
AE: Sleep Disorder [3, 19]: 0 n (%)
AE: Tremor [3, 19]: 1 (8.3) n (%)
Total participants with an event [3, 19]: 1 (8.3) n (%)
Number of AEs reported ([3]; Study 2, single-dose MTX on day 1): Three

SMILES: Cc1c(NC(=O)c2cc3c(s2)CCCC3)cccc1-c1cn(C)c(=O)c(Nc2ccc([C@@H]3C(=O)N(C)CCN3C)cc2)n1 [GDC-0834]
Efficacy in animal models of arthritis [4]: Dose-dependent efficacy

SMILES: C=CC(=O)N1CCC[C@@H](n2nc(-c3ccc(Oc4ccccc4)cc3)c3c(N)ncnc32)C1 [PCI-32765]
Efficacy in animal models of arthritis [4]: Dose-dependent efficacy

SMILES: CN1CCN(c2ccc(Nc3cc(-c4cccc(-n5ccc6cc(C7CC7)cc(F)c6c5=O)c4CO)cn(C)c3=O)nc2)CC1 [RN486]
Efficacy on joint and systemic inflammation [5]: efficacious in reducing joint and systemic inflammation

Stability, %Dev [2, 20]: -0.3%
Stability, Mean Conc. [2, 20]: 747 ng/mL
Stability, %Dev [2, 21]: 9.2%
Stability, Mean Conc. [2, 21]: 3.28 ng/mL
Stability, %Dev [2, 22]: -8.1%
Stability, Mean Conc. [2, 22]: 689 ng/mL
Stability, %Dev [2, 23]: -8.7%
Stability, Mean Conc. [2, 23]: 2.74 ng/mL
Stability, %Dev [2, 24]: 0.4%
Stability, Mean Conc. [2, 24]: 753 ng/mL
Stability, %Dev [2, 25]: 5.7%
Stability, Mean Conc. [2, 25]: 3.17 ng/mL
Stability, %Dev [2, 26]: -0.3%
Stability, Mean Conc. [2, 26]: 747 ng/mL
Stability, %Dev [2, 27]: -10.4%
Stability, Mean Conc. [2, 27]: 2.69 ng/mL
Stability, %Dev [2, 28]: 0.2%
Stability, Mean Conc. [2, 28]: 751 ng/mL
Stability, %Dev [2, 29]: 1.4%
Stability, Mean Conc. [2, 29]: 3.04 ng/mL
SMILES: CN(Cc1nc2c(N)nc(N)nc2[nH]c1=O)c1ccc(C(=O)N[C@@H](CCC(=O)O)C(=O)O)cc1 [7-hydroxymethotrexate]
